Assay results: patent publication US6395913B1, “Recovery and purification of 3,4-epoxy-1-butene” (Eastman Chemical Company, priority 2001, dated 2002)

Tests used:
Type in all cases: physicochemical
[1] = Extraction affinity of water-immiscible solvents: distribution coefficients against a standard water/3-buten-1,2-diol/epoxybutene solution; details: room temperature; for Distribution Coefficients Epoxy-Butene: 1 part solvent : 1 part standard solution (35% water/65% diol with approx. 10 wt% epoxybutene), GC analysis, ONE PHASE = no phase separation; for Distribution Coefficients Solvent / Distribution Coefficients Water / Distribution Coefficients Diol: 1 part solvent : 1 part standard water-diol-epoxybutene solution; for Distribution Coefficients Diol: diol = 3-buten-1,2-diol
Procedure: This example compares the extraction affinity of various water-immiscible solvents for epoxybutene in the presence of aqueous absorbent mixtures, as occurs in the extraction zone of both embodiments of this invention. A standard mixture of 35% water and 65% 3-buten-1,2-diol (diol) was prepared. […] For each candidate extractant solvent specified in Table 1, one part by weight water-immiscible solvent was added to one part standard water-diol-epoxybutene solution in a separatory funnel. The mixture was vigorously shaken, allowed to settle, then separated into two liquid phases at room temperature. The aqueous and organic layers from the decantation were analyzed by gas chromatography to determine the composition of each layer. From these compositions, distribution coefficients were calculated for epoxybutene, water, diol, and the candidate extractant as follows: [formula]

[2] = Rate of epoxybutene hydrolysis as a function of pH
Description: Epoxybutene reacts readily with nucleophiles such as water and alcohols to form 3-butene-1,2-diol and glycol ethers, respectively. However, the relative rate of epoxybutene reaction with nucleophiles is a function of pH. Epoxybutene, like other epoxides, undergoes both acid and base catalysis. Acid catalysis has the larger influence on the rate of reaction. For example, the rate of epoxybutene hydrolysis is over 500 times greater at pH 3 than at pH 7. At pH 11, the rate is over 17 times greater than at pH 7. Since it is desirable to minimize epoxybutene losses due to reaction with nucleophiles, EpB reactivity can be reduced by maintaining the epoxybutene-laden solution at or near a pH of about 7 to 8. This can be done by adding a basic compound to the recovery system. Generally the process gas from the reactor contains ppm levels of formic acid and other organic acids. Thus, any basic material which is capable of neutralizing organic acids may be used in the present process. […]

[3] = Epoxybutene loss by reaction (hydrolysis) during continuous distillation; details: for epoxybutene present in the feed reacted to form 1,2-diol and higher diol oligomers: about 1 bar
Procedure: The distillation was conducted in a silvered, vacuum-jacketed glass Oldershaw column, equipped with a liquid-dividing distillation head, feed tray, reflux magnet, reflux timer, cooling water condenser, jacketed reboiler, pressure gage, and nitrogen purge line. The column was configured with a 15-plate stripping section, a 10-plate rectifying section, and a 500 ml jacketed flask heated by a thermostatted circulating oil bath. Feed to the column was supplied from a 5-liter jacketed vessel via a piston pump and bottoms take-off was removed via a second piston pump. The bottoms product was cooled in a small water-chilled stainless steel heat exchanger placed in line on the suction side of the pump. The distillate product flowed by gravity to a jacketed cooled receiver, which also functioned as a phase decanter. Thermocouples were provided at the reboiler, and distillation head. The continuous run lasted about 12 hours in duration with a total feed of about 1192 grams. A reflux ratio of 1:1 was employed. The column was operated at about 1 bar absolute pressure. During steady state operation the average distillate composition comprised about 16% water, 84% epoxybutene, and less than 0.01% 1,2-diol. The distillate separated into two liquid phases upon settling. The average bottoms product comprised 59.2% water, less than 0.2% epoxybutene, and 39.9% 1,2-diol. Approximately 66% of the epoxybutene present in the feed reacted to form 1,2-diol and higher diol oligomers and 93% of the unreacted epoxybutene was recovered in the distillate.
The distillation was conducted in a silvered, vacuum-jacketed glass Oldershaw column, equipped with a liquid-dividing distillation head, feed tray, reflux magnet, reflux timer, cooling water condenser, jacketed reboiler, pressure gage, and nitrogen purge line. The column was configured with a 15-plate stripping section, a 10-plate rectifying section, and a 500 ml jacketed flask heated by a thermostatted circulating oil bath. Feed to the column was supplied from a 5-liter jacketed vessel via a piston pump and bottoms take-off was removed via a second piston pump. The product removed from the base of the column was cooled in a small water-chilled stainless steel heat exchanger placed in line on the suction side of the pump. The distillate product flowed by gravity to a jacketed cooled receiver, which also functioned as a phase decanter. Thermocouples were provided at the reboiler, and distillation head. The continuous run lasted about 10 hours in duration with a total feed of about 3028 grams. A reflux ratio of 3:1 was employed. The column was operated at about 1 bar absolute pressure. During steady state operation the average distillate composition comprised about 20.4% water, 79.4% epoxybutene, and less than 0.2% 1,2-diol. […]

Structure (SMILES) | Distribution Coefficients Epoxy-Butene [1] | Distribution Coefficients Solvent [1] | Distribution Coefficients Water [1] | Distribution Coefficients Diol [1] | other results
c1ccc2c(c1)CCCC2 [1,2,3,4-Tetrahydronaphthalene] | 1.91 | 51.8 | 0.010 | 0.021 | –
Clc1ccccc1Cl [1,2-Dichlorobenzene] | 3.91 | 54.4 | 0.002 | 0.007 | –
CC(C)C(=O)OCC(C)(C)C(OC(=O)C(C)C)C(C)C (stereo not drawn) [2,2,4-Trimethyl-1,3-Pentanediol Diisobutyrate] | 2.19 | 124 | 0.012 | 0.027 | –
CCCCC(CC)CO (stereo not drawn) [2-Ethylhexanol] | ONE PHASE | – | – | – | –
CCCCOC(=O)CC [Butyl Propionate] | 3.96 | 14.1 | 0.042 | 0.115 | –
ClC(Cl)Cl [Chloroform] | 8.73 | 8.33 | 0.024 | 0.106 | –
C1CCCCC1 [Cyclohexane] | 2.09 | 215 | 0.001 | 0.000 | –
O=C1CCCCC1 [Cyclohexanone] | ONE PHASE | – | – | – | –
CC1=CC(=O)CC(C)(C)C1 [Isophorone] | ONE PHASE | – | – | – | –
COC(=O)c1ccccc1 [Methyl Benzoate] | 2.84 | 6.66 | 0.076 | 0.155 | –
COC(C)(C)C [Methyl t-Butyl Ether] | ONE PHASE | – | – | – | –
C=CC1CO1 (stereo not drawn) [epoxybutene, 3,4-epoxy-1-butene] | – | – | – | – | rate of epoxybutene hydrolysis relative to pH 7 ([2]; pH 3 versus pH 7): over 500 times; rate of epoxybutene hydrolysis relative to pH 7 ([2]; pH 11 versus pH 7): over 17 times; epoxybutene present in the feed reacted to form 1,2-diol and higher diol oligomers ([3]; Comparative Example 1: distillation from 45.4% water, 9.1% epoxybutene, 45.5% 1,2-diol): Approximately 66%; epoxybutene present in the feed reacted to form 1,2-diol and higher diol oligomers ([3]; Example 6: distillation from p-xylene extract): Less than 0.5%; epoxybutene present in the feed reacted to form 1,2-diol and higher diol oligomers ([3]; Example 7: distillation from isobutyl isobutyrate extract): Less than 0.4%; percent epoxybutene loss ([3]; Example 11: distillation of water-rich layer (96.92% water, 3.0% epoxybutene), feed pH 8 with K2CO3-H3PO4 buffer, 740 Torr): 1.5%
Cc1cccc(C)c1 [m-Xylene] | 2.32 | 1479 | 0.002 | 0.005 | –
CCCCCCCCCC [n-Decane] | 1.06 | 1907 | 0.000 | 0.001 | –
CCCCCCC [n-Heptane] | 1.93 | 851 | 0.001 | 0.001 | –
Cc1ccc(C)cc1 [p-Xylene] | 4.34 | 368 | 0.002 | 0.005 | –

Second part, led by results:

Distribution Coefficients Epoxy-Butene [1] | Distribution Coefficients Solvent [1] | Distribution Coefficients Water [1] | Distribution Coefficients Diol [1] | Structure (SMILES) | other results
1.92 | 329 | 0.001 | 0.004 | CC(C)c1cccc(C(C)C)c1 [1,3-Diisopropylbenzene] | –
3.10 | 101 | 0.002 | 0.006 | Cc1cccc2ccccc12 [1-Methylnaphthalene] | –
ONE PHASE | – | – | – | COCC(C)OC(C)=O (stereo not drawn) [2-Methoxy-1-Methylethyl Acetate] | –
ONE PHASE | – | – | – | CCCC(C)=O [2-Pentanone] | –
ONE PHASE | – | – | – | CCC(O)CC [3-Pentanol] | –
ONE PHASE | – | – | – | CCC(=O)CC [3-Pentanone] | –
ONE PHASE | – | – | – | C[S+](C)[O-] [Dimethylsulfoxide] | –
3.49 | 34.4 | 0.022 | 0.065 | CC(C)COC(=O)C(C)C [Isobutyl isobutyrate] | –
2.80 | 25.6 | 0.073 | 0.181 | CC(=O)OCCC(C)C [Isopentyl Acetate] | –
2.28 | 352 | 0.001 | 0.003 | C=C(C)[C@H]1CC=C(C)CC1 [Limonene] | –
ONE PHASE | – | – | – | CC(=O)CC(C)C [Methyl Isobutyl Ketone] | –
ONE PHASE | – | – | – | CC1COC(=O)O1 (stereo not drawn) [Propylene Carbonate] | –
